Assay results: US8283439B2, “Recombinant fragments and synthetic peptides of 17-kDa polypeptide useful in detecting Bartonella henselae” (Medical Diagnostic Laboratories L.L.C., priority 2008, dated 2012)
“Also recorded” adds a separate entry of the source.

System: antibodies present in IFA sero-positive sera from patients infected with Bartonella henselae (IgG)
Experiment: IgG ELISA with synthetic polypeptides of 17-kDa protein as coating antigen
Assay type: binding, human
Conditions: for antibody binding activity in ELISA: IFA sero-positive sera, mostly relative to peptide 3C
From the text: A panel of 47 human sera, including 27 IFA positive and 20 WA negative sera, was used. ROC analysis was used to analysis the binding activity via OD450nm (FIGS. 19 and 21). AUCs for peptide 3C, 3B, 3D, and 3E were 0.9, 0.5, 0.5, and 0.8 respectively (FIGS. 19 and 21). […] Thus, the antibody recognition site seems to be present on peptide 3C (but not peptides 3B and 3D).
We adopted an IgG ELISA assay and evaluated the binding activity of the modified peptides towards IgG. The ELISA procedure involves: (i) coating 96-well micro-titer plates with modified peptides at varying concentrations (e.g., 0.2-5 μg/ml) at 4° C. overnight; (ii) adding 5% skim milk to block non-specific binding; (iii) adding patients' sera to allow formation of antibody-antigen complex; (iv) detecting the antibody-antigen complex. IFA sero-positive sera served as positive controls and IFA sero-negative sera served as negative controls. Detection of antibody-antigen complex was performed with the use of horseradish peroxidase.
A panel of 47 human sera was used in an ELISA assay to evaluate the sensitivity and specificity for synthetic polypeptides of 17-kDa protein. This panel contains 27 IFA positive sera and 20 IFA negative sera. Synthetic polypeptides used include amino acid substitution (Peptide 3C-CS3), addition (Peptide 3C-Ext2), and deletion (Peptide 3C-Del). Antibody binding was reflected by OD450nm, which was analyzed by Interactive dot diagram in statistic software MedCalc.

[1] = ELISA, panel of 47 human sera (27 IFA positive, 20 IFA negative), ROC analysis of OD450nm
[2] = panel study, 47 human sera (27 IFA positive, 20 IFA negative), interactive dot diagram

DDLQKQLKEKLEKSDVRL (listed as Bartonella henselae) [Peptide 3C-CS1, peptide 3C with conservative substitution E to D]
antibody binding activity in ELISA: identical binding activity as compared to that of peptide 3C

EDIQKQLKEKLEKSDVRL (listed as Bartonella henselae) [Peptide 3C-CS2, peptide 3C with conservative substitution L to I]
antibody binding activity in ELISA: same binding activity

EDLQKQLKEKLEKSDVRL (listed as Bartonella henselae) [Peptide 3C, synthetic polypeptide, aa 131-148 of 17-kDa protein]
AUC [1]: 0.9 | sensitivity [1]: 77.8% | specificity [1]: 88.2% | antibody binding activity in ELISA: possesses the antibody binding activity; also recorded: dose-dependent increase in binding towards sero-positive serum | antibody binding activity in ELISA (listed as SEQ ID NO: 22): possesses the ability to bind to antibodies present in IFA positive sera

EDLQKQLKSDKEVKLRLE (listed as Bartonella henselae) [Peptide 3C-RD2, peptide 3C with substitution of the last 10 AA at C-terminus]
antibody binding activity in ELISA: completed abrogated the binding activity; also recorded: fail to bind antibody | sensitivity [2]: ~11% | specificity [2]: 0%

EDLQKQVKEKLEKSDVRL (listed as Bartonella henselae) [Peptide 3C-CS3, peptide 3C with conservative substitution L to V]
antibody binding activity in ELISA: same binding activity; also recorded: identical binding activity as compared to that of peptide 3C | sensitivity [2]: ~80% | specificity [2]: ~90%

ED_QKQLKEKLEKSDVRL (EDQKQLKEKLEKSDVRL; listed as Bartonella henselae) [Peptide 3C-Del, peptide 3C with leucine at third position from N-terminus deleted]
antibody binding activity in ELISA: did not alter the binding activity; also recorded: identical binding activity as compared to that of peptide 3C | sensitivity [2]: ~80% | specificity [2]: ~90%

EEQTQKKHEDLQKQLK (listed as Bartonella henselae) [Peptide 3D, synthetic polypeptide, aa 123-138 of 17-kDa protein]
AUC [1]: 0.5 | sensitivity [1]: 85.2% | specificity [1]: 25.0%

EKLEKSDVRL (listed as Bartonella henselae) [Peptide 3E, synthetic polypeptide, aa 139-148 of 17-kDa protein]
AUC [1]: 0.8 | sensitivity [1]: 40.7% | specificity [1]: 88.2% | antibody binding activity in ELISA: not sufficient to complete antibody binding | antibody binding activity in ELISA (listed as SEQ ID NO: 33): by itself insufficient to render the ability to bind antibodies present in IFA positive sera

EQTQKKHEDLQKQLKEKLEKSDVRL (listed as Bartonella henselae) [Peptide 3C-Ext2, peptide 3C with addition of 7 AA at N-terminus]
antibody binding activity in ELISA: same binding activity as compared to that of peptide 3C; also recorded: identical binding activity as compared to that of peptide 3C | sensitivity [2]: ~80% | specificity [2]: ~90%

LKLELELVQDSDKQEKRK (listed as Bartonella henselae) [Peptide 3C-RD, peptide 3C with substitution of the entire 18 AA]
antibody binding activity in ELISA: no binding activity; also recorded: fail to bind antibody | sensitivity [2]: ~11% | specificity [2]: 0%

LKQDEQKLEKLEKSDVRL (listed as Bartonella henselae) [Peptide 3C-RD1, peptide 3C with substitution of the first 8 AA at N-terminus]
antibody binding activity in ELISA: same binding activity as compared to that of peptide 3C

QAKDTKTKEELREEQTQK (listed as Bartonella henselae) [Peptide 3B, synthetic polypeptide, aa 111-128 of 17-kDa protein]
AUC [1]: 0.5 | sensitivity [1]: 33.3% | specificity [1]: 90.0%

QKKHEDLQKQLKEKLEKSDVRL (listed as Bartonella henselae) [Peptide 3C-Ext1, peptide 3C with addition of 4 AA at N-terminus]
antibody binding activity in ELISA: same binding activity as compared to that of peptide 3C
